Measurements reported in patent US12428422B2, “Purine derivatives as SIK-3 inhibitors” (RHIZEN PHARMACEUTICALS AG, priority 2020, dated 2025).

What was measured:
SIK3 (human) = SIK3 (human) (Homo sapiens, UniProt Q9Y2K2); experiment: Enzymatic radiometric assay against human salt-inducible kinase-3 (SIK3); format: biochemical
Protocol: Assay 1: Determination of IC50 of Compound M1 Against Human Salt-Inducible Kinase-3 (SIK3) Using an Enzymatic Radiometric Assay
• SIK3 (human) was incubated with 8 mM MOPS pH 7.0, 0.2 mM EDTA, 100 uM of the peptide […] (Substrate), 10 mM Mg Acetate and [gamma-33P-ATP] (specific activity and concentration as required) in the presence of Compound M1. • The reaction was initiated by the addition of the Mg/ATP mix. • After incubation for 40 minutes at room temperature, the reaction was stopped by the addition of phosphoric acid to a concentration of 0.5%. • 10 μL of the reaction mixture was then spotted onto a P30 filtermat and washed four times for 4 minutes in 0.425% phosphoric acid and once in methanol prior to drying and scintillation counting. • The IC50 value was calculated using GraphPad Prism.

6 isoform of PI3K = 6 isoform of PI3K (Homo sapiens, UniProt O00329); experiment: Activity against PI3K delta isoform (printed "6"); settings: independently synthesized compound
THP-1 cell lines = experiment: MTT cell growth inhibition, single agent or combination, THP-1; format: cell-based; settings: combined with azacytidine or ventoclax, 72 hrs
Protocol: (§1) Assay 4: Compound M1 as a Single Agent or in Combination with Azacytidine, or Venetoclax was Determined in the AML Lines: THP-1, U937, and MV-4-11.
(§2) Day 0 • The cells were pelleted and counted. • Cells were plated at desired density (100 μl/well) in complete media in a 96-well plate in triplicates. A column for Day “0” reading was also seeded (18-20 hrs after initial plating and before addition of the inhibitors) • Plates were incubated at 37° C. and 5% CO2. Day 1 • 10 μl of MTT (5 mg/ml) were added to the column designated for Day “0”. It was mixed well and incubated at 37° C. and 5% CO2 for 3.5 h. Cells were pelleted down at 4000 rpm for 10 minutes. • Media was aspirated out and 150 μl of DMSO were added to the cells and mixed by pipetting to dissolve the crystals • Plate was read at A560 nm and A640 nm. […] Crystals were dissolved by repeated pipetting. • The plate was read at A560 nm and A640 nm. […]
(§3) Reference absorbance values were subtracted from test absorbance values. Day 0 values were subtracted from final day absorbance values for determining cell growth. Percent cell growth inhibitions were calculated.

U937 cell lines = experiment: MTT cell growth inhibition, single agent or combination, U937; format: cell-based; settings: combined with azacytidine or ventoclax, 72 hrs
Protocol: as §1, §2, §3

HuT-78 cell lines = experiment: MTT cell growth inhibition, combination with romidepsin, HuT-78; format: cell-based; settings: combined with romedepsin, 72 hrs
Protocol: Assay 5: Combination of Compound M1 with Standard Agents in HuT-78 Cell Lines
Day 0 • The HuT-78 cells were pelleted and counted. • Cells were plated at desired density (100 μl/well) in complete media in a 96-well plate in triplicates. A column for Day “0” reading was also seeded. (18-20 hrs after initial plating and before addition of the inhibitors) • Plates were incubated at 37° C. and 5% CO2. Day 1 • 10 μl of MTT (5 mg/ml) were added to the column designated for Day “0”. It was mixed well and incubated at 37° C. and 5% CO2 for 3.5 hours. Cells were pelleted down at 4000 rpm for 10 minutes. • Media was aspirated out and 150 μl of DMSO were added to the cells and mixed by pipetting to dissolve the crystals • The plate was read at A560 nm and A640 nm. Day 2 • A series of dilutions of the inhibitors were initially made in 100% DMSO and further diluted in growth medium. • Cells were treated with either single agent of DMSO, compound M1, romidepsin, or a combination of compound M1 and romidepsin (HuT-78). […] Crystals were dissolved by repeated pipetting. • The plate was read at A560 nm and A640 nm. […]
(§4) Reference absorbance values were subtracted from test absorbance values. Day 0 values were subtracted from final day absorbance values for determining cell growth. % Cell growth inhibitions were calculated.

SK-OV-3 cell lines = experiment: MTT cell growth inhibition, combination with talzoparib, SK-OV-3; format: cell-based; settings: combined with talzoparib, 72 hrs
Protocol: Assay 5: Combination of Compound M1 with Standard Agents in Different Cell Lines
Day 0 • The cells were pelleted and counted. • Cells were plated at desired density (100 μl/well) in complete media in a 96-well plate in triplicates. A column for Day “0” reading was also seeded. (18-20 hrs after initial plating and before addition of the inhibitors) • Plates were incubated at 37° C. and 5% CO2. Day 1 • 10 μl of MTT (5 mg/ml) were added to the column designated for Day “0”. It was mixed well and incubated at 37° C. and 5% CO2 for 3.5 h. Cells were pelleted down at 4000 rpm for 10 minutes. • Media was aspirated out and 150 μl of DMSO were added to the cells and mixed by pipetting to dissolve the crystals • The plate was read at A560 nm and A640 nm. Day 2 • A series of dilutions of the inhibitors were initially made in 100% DMSO and further diluted in growth medium. • Cells were treated with either single agent of DMSO, compound M1, talzoparib, and combination of compound M1 and talzoparib (OVCAr-3 and SK-OV-3). […]
The plate was read at A560 nm and A640 nm.
as §4

Sequence of SIK3 (human) (Q9Y2K2 whole entry): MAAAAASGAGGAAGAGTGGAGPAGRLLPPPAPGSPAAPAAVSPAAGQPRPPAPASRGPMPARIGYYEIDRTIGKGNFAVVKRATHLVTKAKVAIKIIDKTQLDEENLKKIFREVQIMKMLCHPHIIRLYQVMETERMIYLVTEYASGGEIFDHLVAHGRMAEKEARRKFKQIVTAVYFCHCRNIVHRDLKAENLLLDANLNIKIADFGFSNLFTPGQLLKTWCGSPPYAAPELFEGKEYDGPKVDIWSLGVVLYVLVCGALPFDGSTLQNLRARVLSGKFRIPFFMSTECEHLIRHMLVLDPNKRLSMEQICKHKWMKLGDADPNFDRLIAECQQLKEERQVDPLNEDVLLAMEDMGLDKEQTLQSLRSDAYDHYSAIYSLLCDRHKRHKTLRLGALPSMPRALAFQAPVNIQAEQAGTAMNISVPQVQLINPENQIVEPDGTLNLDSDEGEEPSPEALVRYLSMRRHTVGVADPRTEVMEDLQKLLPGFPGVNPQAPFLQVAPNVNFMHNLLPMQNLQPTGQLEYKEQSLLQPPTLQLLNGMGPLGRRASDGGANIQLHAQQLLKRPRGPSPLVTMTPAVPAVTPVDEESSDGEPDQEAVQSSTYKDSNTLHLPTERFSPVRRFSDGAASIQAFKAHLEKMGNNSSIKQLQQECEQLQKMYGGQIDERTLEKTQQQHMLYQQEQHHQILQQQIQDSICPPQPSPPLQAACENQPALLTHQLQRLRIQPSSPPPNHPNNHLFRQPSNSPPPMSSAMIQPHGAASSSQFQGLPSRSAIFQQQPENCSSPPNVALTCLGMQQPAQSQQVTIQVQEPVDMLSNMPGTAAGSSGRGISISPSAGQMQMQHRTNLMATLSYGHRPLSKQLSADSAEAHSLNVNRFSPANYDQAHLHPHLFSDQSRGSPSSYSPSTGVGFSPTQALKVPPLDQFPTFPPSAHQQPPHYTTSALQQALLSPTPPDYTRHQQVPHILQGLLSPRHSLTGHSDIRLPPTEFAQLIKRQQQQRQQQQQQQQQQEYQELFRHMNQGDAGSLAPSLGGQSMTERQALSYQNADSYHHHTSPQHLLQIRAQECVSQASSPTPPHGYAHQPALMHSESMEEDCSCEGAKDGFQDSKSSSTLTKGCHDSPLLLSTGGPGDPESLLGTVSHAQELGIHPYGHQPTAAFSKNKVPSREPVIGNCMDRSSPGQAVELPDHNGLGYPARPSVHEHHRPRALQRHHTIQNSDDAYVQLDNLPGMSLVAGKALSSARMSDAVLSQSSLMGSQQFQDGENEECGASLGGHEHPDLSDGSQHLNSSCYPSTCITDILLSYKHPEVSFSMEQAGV
Sequence of 6 isoform of PI3K (O00329 whole entry, canonical isoform): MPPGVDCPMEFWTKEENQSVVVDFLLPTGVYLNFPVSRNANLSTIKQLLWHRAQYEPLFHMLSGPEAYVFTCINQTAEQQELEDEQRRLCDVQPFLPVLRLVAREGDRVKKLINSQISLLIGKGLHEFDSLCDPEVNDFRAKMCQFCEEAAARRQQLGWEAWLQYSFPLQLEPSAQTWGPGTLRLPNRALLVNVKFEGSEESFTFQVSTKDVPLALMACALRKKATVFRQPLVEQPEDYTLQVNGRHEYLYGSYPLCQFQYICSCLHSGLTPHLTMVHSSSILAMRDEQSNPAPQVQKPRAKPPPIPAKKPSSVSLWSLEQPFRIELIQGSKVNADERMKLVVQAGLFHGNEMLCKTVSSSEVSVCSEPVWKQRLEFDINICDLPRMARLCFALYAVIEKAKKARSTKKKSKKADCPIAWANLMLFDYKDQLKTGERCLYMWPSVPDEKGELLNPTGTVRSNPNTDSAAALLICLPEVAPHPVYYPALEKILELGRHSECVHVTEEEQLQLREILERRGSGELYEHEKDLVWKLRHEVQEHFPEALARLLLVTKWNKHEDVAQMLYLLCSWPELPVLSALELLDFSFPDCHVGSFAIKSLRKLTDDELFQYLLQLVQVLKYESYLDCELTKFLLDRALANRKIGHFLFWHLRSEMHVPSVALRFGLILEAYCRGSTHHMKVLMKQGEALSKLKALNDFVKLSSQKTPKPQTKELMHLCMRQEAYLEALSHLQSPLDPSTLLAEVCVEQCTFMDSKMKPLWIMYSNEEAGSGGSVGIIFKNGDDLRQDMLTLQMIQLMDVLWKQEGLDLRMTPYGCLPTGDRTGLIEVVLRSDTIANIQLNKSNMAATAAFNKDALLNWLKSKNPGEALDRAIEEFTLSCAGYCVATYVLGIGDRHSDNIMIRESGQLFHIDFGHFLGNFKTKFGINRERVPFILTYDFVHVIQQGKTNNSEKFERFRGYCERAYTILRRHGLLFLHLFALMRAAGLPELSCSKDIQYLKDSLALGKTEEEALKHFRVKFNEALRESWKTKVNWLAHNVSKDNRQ
Sequence of 6 isoform of PI3K (P27986 whole entry partner, canonical isoform): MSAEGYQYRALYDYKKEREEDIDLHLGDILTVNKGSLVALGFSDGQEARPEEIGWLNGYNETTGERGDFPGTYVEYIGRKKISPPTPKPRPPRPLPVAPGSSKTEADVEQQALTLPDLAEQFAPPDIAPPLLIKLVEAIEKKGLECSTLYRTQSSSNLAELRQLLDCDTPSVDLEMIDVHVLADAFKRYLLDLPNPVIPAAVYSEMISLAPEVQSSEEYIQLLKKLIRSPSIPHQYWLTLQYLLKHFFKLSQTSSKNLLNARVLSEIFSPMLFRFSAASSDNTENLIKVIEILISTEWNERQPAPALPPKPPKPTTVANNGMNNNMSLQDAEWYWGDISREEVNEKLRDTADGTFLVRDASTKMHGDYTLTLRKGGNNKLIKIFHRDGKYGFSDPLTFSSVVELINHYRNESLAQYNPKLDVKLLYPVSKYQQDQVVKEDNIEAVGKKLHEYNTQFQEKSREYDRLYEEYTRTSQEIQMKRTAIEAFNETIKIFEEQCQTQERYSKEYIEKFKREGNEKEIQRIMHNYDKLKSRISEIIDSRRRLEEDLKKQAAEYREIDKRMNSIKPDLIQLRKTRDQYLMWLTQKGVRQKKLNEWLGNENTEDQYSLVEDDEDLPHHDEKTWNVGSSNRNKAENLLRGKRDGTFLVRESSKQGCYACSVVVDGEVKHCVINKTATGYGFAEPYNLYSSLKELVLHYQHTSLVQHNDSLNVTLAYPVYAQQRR

- activity against salt-inducible kinase 3 (SIK3) (SIK3 (human)): exhibit activity
- SIK-3 inhibitory potency compared among compounds M, M1 and M2 (SIK3 (human); of the three compounds M, M1 and M2): most potent SIK-3 inhibitor
- activity against the 6 isoform of PI3K (6 isoform of PI3K): inactive
SMILES: CC[C@H](Nc1ncnc2[nH]c(O)nc12)c1oc2ccccc2c(=O)c1-c1cccc(F)c1 [Compound M1, (S)-3-(3-fluorophenyl)-2-(1-((8-hydroxy-9H-purin-6-yl)amino)propyl)-4H-chromen-4-one]
- cell growth inhibition in combination (THP-1 cell lines): synergistic activity
- cell growth inhibition in combination (U937 cell lines): synergistic activity
- cell growth inhibition in combination (HuT-78 cell lines): synergistic results
- cell growth inhibition in combination (SK-OV-3 cell lines): synergistic results
